Data published in US20260115336A1, “MOFS WITH BETA-EMITTERS FOR RADIOTHERAPY” (Node Pharma AS, priority 2023, published 2026).

What was measured:
[1] = Lu177 radiolabelling (adsorption) of the MOF, iTLC; format: physicochemical; details: 60 kBq [177Lu]LuCl3, 0.005 mol/L MES buffer pH 6, 37° C., 24 hours
Description: (§1) Radiolabelling was performed by adding 60 kBq of [^177Lu]LuCl3 solution to a 400 μL suspension of UiO-66-(COOH)2 (0.6 mg) in 0.005 mol/L MES buffer (pH 6). A control sample consisting of 60 kBq [^177Lu]LuCl3 in 0.005 mol/L MES buffer was prepared in parallel. The samples were kept at 37° C., under agitation for 24 hours. 35 μL of each sample was dispersed in 400 μL of fetal bovine serum. After 30 minutes, both the radiolabelled-dose and the serum-dose suspensions were subjected to instant thin layer chromatography (iTLC) under the following conditions: 5 μL drops were placed on glass fiber iTLC strips, which were then placed in a TLC chamber with 20 mM sodium citrate (pH 6.5) as mobile phase. Upon completion, the application point and the top of the iTLC strip were measured separately using a Hidex gamma counter.

[2] = Retention of Lu177 in the MOF in serum, iTLC; format: in vitro ADME; details: fetal bovine serum, after 30 minutes
Description: as §1

[Cl][Lu]([Cl])[Cl] [LuCl3, [^177Lu]LuCl3]
Labelling, RCP (radiochemical purity) [1]: 1% | Serum retention (retention of Lu in serum) [2]: 3%
